PMC7796031, “Studies of Coumarin Derivatives for Constitutive Androstane Receptor (CAR) Activation” (Molecules, 2020)

What was measured:
UGT1A1 = test: Protein expression of UGT1A1 (western blot); format: cell-based, human
Protocol: (§1) 1 × 10^6 cells were seeded in a 10 cm plate, incubated at 37 °C for overnight and treated with various concentrations of compounds for the indicated times. After incubation, the culture medium was removed and washed twice with 2 mL ice-cold 1× PBS. Three hundred μL of protein lysis buffer (150 mM NaCl, 50 mM Tris-HCl (pH 7.4), 1% SDS, 1% Triton X-100, 1 mM PMSF) was added into each plate, scraped with a rubber policeman, collected into a premarked microtube and the incubated in ice for 1 h, sonicated by Ultrasonic Cell Disruptor for three time at 5 s each. The cell lysated was cleared by centrifugation at 12,000× g for 15 min at 4 °C. Supernatants were transferred into a fresh marked microtube and stored at −20 °C for future use.
(§2) Protein concentration of each sample was determined using a BCA Protein Assay Kit (Pirece®, Thermo Scientific). Different percentages of SDS-PAGE gels were prepared according to the molecular size of proteins of interest. After complete polymerization of stacking gels, each sample with equal amount of total protein was separated in polyacrylamide gels (stacking gel: 50 v, 60 min; separating gel: 100 v, 60 min). After separating, wet-transfer method was utilized to transfer proteins onto the PVDF membrane. The gels were assembled in the transfer sandwich and put in a transfer tank filled with transfer buffer (25 mM glycine, 0.15% ethanolamine, 20% methanol). The electro-transfer was performed at the voltage of 100 volt for 80 min at 4 °C. After transfer, PVDF-membrane was blocked with 5% BSA in 1× TBS-Tween at room temperature for 1 h. Membrane was washed with 10 mL 1× TBS-Tween three times and incubated with primary antibodies overnight at 4 °C with gentle agitation. After primary antibody was removed, the membrane was washed three times with 10 mL 1× TBS-Tween for 10 min at room temperature with constant shaking. […] The emitted fluorescence from the membrane was caught on a LAS-4000 biomolecule imager (FUJI.).

MRP2 = test: Protein expression of MRP2 (western blot); format: cell-based, human
Protocol: Figure 7 The protein expressions of MRP2 after 6,7-diprenoxycoumarin (50) treatment. Hep3B cell (1 × 10^6) were treated with 50 (5, 10, 20 and 40 μM) for 24 h. Treated cell lysates were prepared as described in the Methods section and the expression of MRP2 was analyzed by western blot.
as §1
as §2, with “agitation.” for “agitation. After primary antibody was removed, the membrane was washed three times with 10 mL 1× TBS-Tween for 10 min at room temperature with constant shaking.”

[1] = system: phosphoenopyruvate carboxykinse (PEPCK) mRNA expression; test: PEPCK mRNA expression induced by dexamethasone and 8-bromo-cAMP in H4IIE cells; format: cell-based, rat; details: dexamethasone (500 nM) + 8-bromo-cAMP, test compounds as printed
Protocol: S21 Effects of scoparone, 50 (PLH), and 6 on phosphoenopyruvate carboxykinse (PEPCK) mRNA expression induced by dexamethasone and 8-bromo-cAMP.
A quantified result of dexamethasone (500 nM) and 8-bromo-cAMP (100µM) induced PEPCK mRNA expression in the presence or absence of scoparone, 50 (PLH) and 6 at 0.78 µM was shown. Insulin (10 nM) was served as an experimental control. Quantified data was presented as mean ± S.E.M. (n = 4). **P < 0.01 and ***P < 0.001 when compared with induction control (None).
PEPCK mRNA could be induced by dexamethasone and 8-bromo-cAMP after 3hr. The presence of insulin […]
Scoparone, at 0.78 µM, can suppress PEPCK
In contrast, both 50 (PLH) and 6 could also suppress PEPCK
Cell culture: The rat H4IIE cells were cultured in Dulbecco’s Modified Eagle’sMedium (DMEM) containing 1 g/L glucose, 5% (v/v) fetal calf serum (FBS) and 1% (v/v) antibiotics (100 U/mL penicillin and 0.1 g/L streptomycin). Cultured cells were maintained at 37 ◦C in an atmosphere of 5% CO2 and 95% air.
The measurement of PEPCK gene expression: H4IIE cells were seeded into 6 cm dish and allowed for the attachment. After serum starvation overnight, cells were treated with various conditions described in the figure legend. After treatment, total RNA of each treatment was extracted using TRI-reagent according to the manufacturer’s instructions. The pelleted RNA was dissolved in distilled water, quantified with NanoDrop™ 1000 Spectrophotometer (Thermo Fisher Scientific, USA) and stored at −70 ◦C. Total RNA (1µg) was reverse transcribed to generate templates. 50 ng of cDNA was employed for further PCR. The sequences of […]
primers for β-actin: 5’-[…]- 3’ and 5’-[…]-3’ and […]
(1 picture or pasted object on this page, not shown here)

[2] = Figure 2, after scoparone or CITCO treatment

| Structure (SMILES) | UGT1A1 protein level (UGT1A1; Hep3B) | protein expression level of MRP2 (MRP2; Hep3B, 5, 10, 20 and 40 μM, 24 h) | suppression of PEPCK mRNA induction [1] | protein expression of UGT1A (CAR downstream gene) (UGT1A1; [2]) | protein expression of MRP2 (CAR downstream gene) (MRP2; [2]) |
| --- | --- | --- | --- | --- | --- |
| CC(C)=CCOc1cc2ccc(=O)oc2cc1OCC=C(C)C [Compound 50, 6,7-diprenoxycoumarin] | not significantly increased | enhanced | less potent | – | – |
| COc1cc2ccc(=O)oc2cc1OC [Compound 39, scoparone] | – | – | level similar to insulin | upregulated | upregulated |
